Measured values taken from patent US20170050957A1, “4-AMINO-6-(HETEROCYCLIC)PICOLINATES AND 6-AMINO-2-(HETEROCYCLIC)PYRIMIDINE-4-CARBOXYLATES AND THEIR USE AS HERBICIDES” (Dow AgroSciences LLC, priority 2013, published 2017).
Like-named read-outs stand apart in the source and are kept apart here.

Columns and labels:
[1] = tested on: Key Grass and Sedge Weeds as well as Grass Crops; assay: Post-emergent Test II herbicidal activity (Table 16); assay type: in vivo; details: post-emergence, 336 h, 14 d; for pest or weed control at 35 g/ha: 35 g ai/ha; for pest or weed control at 70 g/ha: 70 g ai/ha; for pest or weed control at 140 g/ha: 140 g ai/ha
Method in brief: (§1)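 Plants at first-second true leaf stage, grown 7-21 d in greenhouse (~15 h photoperiod, 23-29 °C day), were track-sprayed at 187 L/ha with compound in acetone/DMSO/water/isopropanol/crop oil/Triton X-155 at a high rate plus 1/2× to 1/16× dilutions. Injury scored visually after 14 d versus untreated plants, 0 (none) to 100% (complete kill).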

[2] = tested on: Key Broadleaf Weed and Crop Species; assay: Post-emergent Test II herbicidal activity (Table 15); assay type: in vivo; details: post-emergence, 336 h, 14 d; for pest or weed control at 35 g/ha: 35 g ai/ha; for pest or weed control at 70 g/ha: 70 g ai/ha; for pest or weed control at 140 g/ha: 140 g ai/ha
Method in brief: as §1

[3] = Cyperus esculentus, yellow nutsedge (Cyperus esculentus), read-out: Visual Growth Reduction (%) 14 Days After Application, CYPES
[4] = Echinochloa crus-galli, barnyardgrass (Echinochloa crus-galli), read-out: Visual Growth Reduction (%) 14 Days After Application, ECHCG
[5] = Oryza sativa, rice (Oryza sativa), read-out: Visual Growth Reduction (%) 14 Days After Application, ORYSA
[6] = Setaria faberi, giant foxtail (Setaria faberi), read-out: Visual Growth Reduction (%) 14 Days After Application, SETFA
[7] = Triticum aestivum, wheat, spring (Triticum aestivum), read-out: Visual Growth Reduction (%) 14 Days After Application, TRZAS
[8] = Zea mays, maize, corn (Zea mays), read-out: Visual Growth Reduction (%) 14 Days After Application, ZEAMX
[9] = Abutilon theophrasti, velvetleaf (Abutilon theophrasti), read-out: Visual Growth Reduction (%) 14 Days After Application, ABUTH
[10] = Amaranthus retroflexus, redroot pigweed (Amaranthus retroflexus), read-out: Visual Growth Reduction (%) 14 Days After Application, AMARE
[11] = Brassica napus, oilseed rape, canola (Brassica napus), read-out: Visual Growth Reduction (%) 14 Days After Application, BRSNN
[12] = Chenopodium album, lambsquarters (Chenopodium album), read-out: Visual Growth Reduction (%) 14 Days After Application, CHEAL
[13] = Euphorbia heterophylla, wild poinsettia (Euphorbia heterophylla), read-out: Visual Growth Reduction (%) 14 Days After Application, EPHHL
[14] = Helianthus annuus, sunflower (Helianthus annuus), read-out: Visual Growth Reduction (%) 14 Days After Application, HELAN

Compound | pest or weed control at 35 g/ha [1, 3] [%] | pest or weed control at 70 g/ha [1, 3] [%] | pest or weed control at 140 g/ha [1, 3] [%] | pest or weed control at 35 g/ha [1, 4] [%] | pest or weed control at 70 g/ha [1, 4] [%] | pest or weed control at 140 g/ha [1, 4] [%] | pest or weed control at 35 g/ha [1, 5] [%] | pest or weed control at 70 g/ha [1, 5] [%] | pest or weed control at 140 g/ha [1, 5] [%] | pest or weed control at 35 g/ha [1, 6] [%] | pest or weed control at 70 g/ha [1, 6] [%] | pest or weed control at 140 g/ha [1, 6] [%] | pest or weed control at 35 g/ha [1, 7] [%] | pest or weed control at 70 g/ha [1, 7] [%] | pest or weed control at 140 g/ha [1, 7] [%] | pest or weed control at 35 g/ha [1, 8] [%] | pest or weed control at 70 g/ha [1, 8] [%] | pest or weed control at 140 g/ha [1, 8] [%] | melting point [°C] | pest or weed control at 35 g/ha [2, 9] [%] | other results
Cc1c(-c2ccc3cc[nH]c3c2)nc(C(=O)O)c(Cl)c1N [Compound 1.29] | 0 to 29 | 0 to 29 | 30 to 44 | 0 to 29 | 0 to 29 | 0 to 29 | 0 to 29 | 0 to 29 | 0 to 29 | 0 to 29 | 0 to 29 | 0 to 29 | 0 to 29 | 0 to 29 | 0 to 29 | 0 to 29 | 0 to 29 | 0 to 29 | 168 to 175 | 0 to 29 | pest or weed control at 70 g/ha [2, 9]: 0 to 29%; pest or weed control at 140 g/ha [2, 9]: 0 to 29%; pest or weed control at 35 g/ha [2, 10]: 45 to 59%; pest or weed control at 70 g/ha [2, 10]: 0 to 29%; pest or weed control at 140 g/ha [2, 10]: 0 to 29%; pest or weed control at 35 g/ha [2, 11]: 75 to 84%; pest or weed control at 70 g/ha [2, 11]: 75 to 84%; pest or weed control at 140 g/ha [2, 11]: 85 to 94%; pest or weed control at 35 g/ha [2, 12]: 45 to 59%; pest or weed control at 70 g/ha [2, 12]: 45 to 59%; pest or weed control at 140 g/ha [2, 12]: 75 to 84%; pest or weed control at 35 g/ha [2, 13]: 0 to 29%; pest or weed control at 70 g/ha [2, 13]: 0 to 29%; pest or weed control at 140 g/ha [2, 13]: 0 to 29%; pest or weed control at 35 g/ha [2, 14]: 60 to 74%; pest or weed control at 70 g/ha [2, 14]: 60 to 74%; pest or weed control at 140 g/ha [2, 14]: 75 to 84%
COC(=O)c1nc(-c2ccc3cc[nH]c3c2)nc(N)c1Cl [Compound 1.30] | 0 to 29 | 0 to 29 | 0 to 29 | 0 to 29 | 0 to 29 | 0 to 29 | 0 to 29 | 0 to 29 | 0 to 29 | 0 to 29 | 0 to 29 | 0 to 29 | 0 to 29 | 0 to 29 | 0 to 29 | 0 to 29 | 0 to 29 | 0 to 29 | 240 to 242 | 0 to 29 | pest or weed control at 70 g/ha [2, 9]: 0 to 29%; pest or weed control at 140 g/ha [2, 9]: 75 to 84%; pest or weed control at 35 g/ha [2, 10]: 0 to 29%; pest or weed control at 70 g/ha [2, 10]: 75 to 84%; pest or weed control at 140 g/ha [2, 10]: 60 to 74%; pest or weed control at 35 g/ha [2, 11]: 45 to 59%; pest or weed control at 70 g/ha [2, 11]: 45 to 59%; pest or weed control at 140 g/ha [2, 11]: 60 to 74%; pest or weed control at 35 g/ha [2, 12]: 30 to 44%; pest or weed control at 70 g/ha [2, 12]: 30 to 44%; pest or weed control at 140 g/ha [2, 12]: 45 to 59%; pest or weed control at 35 g/ha [2, 13]: 0 to 29%; pest or weed control at 70 g/ha [2, 13]: 45 to 59%; pest or weed control at 140 g/ha [2, 13]: 60 to 74%; pest or weed control at 35 g/ha [2, 14]: 0 to 29%; pest or weed control at 70 g/ha [2, 14]: 0 to 29%; pest or weed control at 140 g/ha [2, 14]: 0 to 29%
COC(=O)c1nc(-c2ccc3cc[nH]c3c2F)nc(N)c1Cl [Compound 1.31] | 0 to 29 | 0 to 29 | 0 to 29 | 75 to 84 | 75 to 84 | 85 to 94 | 0 to 29 | 0 to 29 | 0 to 29 | 60 to 74 | 75 to 84 | 85 to 94 | 75 to 84 | 0 to 29 | 30 to 44 | 0 to 29 | 0 to 29 | 0 to 29 | 185 to 190 | 45 to 59 | pest or weed control at 70 g/ha [2, 9]: 60 to 74%; pest or weed control at 140 g/ha [2, 9]: 60 to 74%; pest or weed control at 35 g/ha [2, 10]: 60 to 74%; pest or weed control at 70 g/ha [2, 10]: 95 to 100%; pest or weed control at 140 g/ha [2, 10]: 95 to 100%; pest or weed control at 35 g/ha [2, 11]: 85 to 94%; pest or weed control at 70 g/ha [2, 11]: 95 to 100%; pest or weed control at 140 g/ha [2, 11]: 95 to 100%; pest or weed control at 35 g/ha [2, 12]: 95 to 100%; pest or weed control at 70 g/ha [2, 12]: 95 to 100%; pest or weed control at 140 g/ha [2, 12]: 95 to 100%; pest or weed control at 35 g/ha [2, 13]: 95 to 100%; pest or weed control at 70 g/ha [2, 13]: 95 to 100%; pest or weed control at 140 g/ha [2, 13]: 95 to 100%; pest or weed control at 35 g/ha [2, 14]: 30 to 44%; pest or weed control at 70 g/ha [2, 14]: 45 to 59%; pest or weed control at 140 g/ha [2, 14]: 60 to 74%
